Data taken from patent US20120219538A1, “STABILIZED PROTEIN FORMULATIONS AND USE THEREOF” (THERAPEOMIC AG, priority 2009, published 2012).
Where two headings read alike, the source gives them in different places.

Molecular target: T1, salmon calcitonin (sCT) (Oncorhynchus keta, UniProt P01263)
T1 construct: Salmon calcitonin is a 32-amino acid polypeptide hormone; purchased Therapeomic Inc., Switzerland
T1 sequence (P01263 83-114 limits assumed): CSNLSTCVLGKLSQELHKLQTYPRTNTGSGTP
Format: physicochemical
Settings: 10 mM sodium citrate buffer pH 6, 1:1 molar ratio; for slope of aggregation curve: Nile red fluorescence at 620 nm; for lag time of aggregation: OD at 450 nm
Procedure: Salmon calcitonin (Therapeomic Inc., Switzerland) in a final concentration of 2.5 mg/ml per well with and without the respective excipients to be tested, i.e. non-conjugated mPEG-amines and non-conjugated hydrophobic headgroups were prepared in 4 different buffer systems: 10 mM sodium acetate pH 5, 10 mM sodium citrate pH 5, 10 mM sodium citrate pH 6, 10 mM sodium phosphate buffer pH 8. Samples are prepared two times and nile red in a final concentration of 1 μM is added to one of each. Aggregation is followed in UV-transparent 96-well plates or 384-well Costar® plates from Corning (Corning Life Sciences, Schiphol, Netherlands) by a microplate reader (Tecan Safire™ microplate reader, Tecan Group Ltd, Männedorf, Switzerland) by monitoring turbidity, nile red fluorescence and intrinsic fluorescence of the protein/peptide drug or the hydrophobic head-group. After finishing the aggregation kinetics, final spectra of nile red fluorescence, UV and protein/peptide drug or hydrophobic head group fluorescence were measured.
Aggregation was checked in absence of any excipient, in presence of equimolar amounts of dansylamide, mPEG-amine 2 kD and dansyl-mPEG 2 kD, respectively.

Substance: salmon calcitonin [sCT]
- slope of aggregation curve (Table 2): 1843 a.u./hrs
- lag time of aggregation (Table 2): 3.5 h
- Nile red fluorescence at 620 nm (Table 2, time 0 hrs): 1058
- OD at 450 nm (Table 2, time 0 hrs): 0.10
- Nile red fluorescence at 620 nm (Table 2, time 9.5 hrs): 18581
- OD at 450 nm (Table 2, time 9.5 hrs): 0.22
- Nile red fluorescence at 620 nm (Table 2, time 20 hrs): 27276
- OD at 450 nm (Table 2, time 20 hrs): 0.63
- Nile red fluorescence at 620 nm (Table 2, time 100 hrs): 25328
- OD at 450 nm (Table 2, time 100 hrs): 0.68
- Nile red fluorescence at 620 nm (Table 2, time 166 hrs): 24729
- OD at 450 nm (Table 2, time 166 hrs): 0.64
- slope of aggregation curve (Table 3, higher detector sensitivity): 5546 a.u./hrs
- lag time of aggregation (Table 3): 4.2 h
- OD at 450 nm (Table 3, time 0 hrs): 0.11
- Nile red fluorescence at 620 nm (Table 3, time 0 hrs, higher sensitivity of the fluorescence detector than Table 2): 4560
- Nile red fluorescence at 620 nm (Table 3, time 5 hrs, higher sensitivity of the fluorescence detector than Table 2): 38483
- OD at 450 nm (Table 3, time 6.2 hrs): 0.15
- OD at 450 nm (Table 3, time 10 hrs): 0.22
- Nile red fluorescence at 620 nm (Table 3, time 10 hrs, higher sensitivity of the fluorescence detector than Table 2): 61019
- Nile red fluorescence at 620 nm (Table 3, time 13.5 hrs, higher sensitivity of the fluorescence detector than Table 2): >65000
- Nile red fluorescence at 620 nm (Table 3, time 20 hrs, higher sensitivity of the fluorescence detector than Table 2): >65000
- OD at 450 nm (Table 3, time 30.5 hrs): 0.49
- OD at 450 nm (Table 3, time 140 hrs): 0.56
